Test system: TNF-α
Test: Cell-Based TNFα Inhibition Assay (PBMCs induced with LPS, Meso Scale)
Details: PBMCs pretreated 1 hr, induced with LPS 100 ng/mL 18-24 hrs, supernatant TNF-α; for inhibition at 0.1 µM / inhibition at 1 µM: PBMC; for inhibition at 0.1 µM / % TNFα Inhibition (0.1 μM): 0.1 μM compound; for inhibition at 1 µM / % TNFα Inhibition (1 μM): 1 μM compound
Method: Cell-Based TNFα Inhibition Assay
PBMCs induced with LPS (lipopolysaccharide): Frozen […] blood mononuclear cells (PBMCs) are purchased from AllCells. Cells are quick thawed, washed once with Roswell Park Memorial Institute medium (RPMI)-1640/10% FBS/1% Penicillin/1% Streptomycin and plated in 96 well plates at 200,000 cells per well. Cells are pretreated with DMSO only or the indicated compounds for 1 hr and then induced with […] for 18-24 hrs. The supernatant is analyzed for TNF-α using Meso Scale assay according to manufacturer's protocol. The negative control wells are treated with DMSO. Compound activity is measured as a percentage of the DMSO control.

SMILES | inhibition at 0.1 µM [%] | inhibition at 1 µM [%] | % TNFα Inhibition (0.1 μM) | % TNFα Inhibition (1 μM)
CC(=O)Nc1scc2c1C(=O)N([C@H](CS(C)(=O)=O)c1ccc3c(c1)OCO3)C2=O [Compound 12, N-(5-(1-(benzo[d][1,3]dioxol-5-yl)-2-(methylsulfonyl)ethyl)-4,6-dioxo-5,6-dihydro-4H-thieno[3,4-c]pyrrol-1-yl)acetamide] | < 20 | < 20 | – | –
CS(=O)(=O)C[C@H](c1ccc2c(c1)OCO2)N1C(=O)c2csc(NC(=O)C3CC3)c2C1=O [Compound 13, N-(5-(1-(benzo[d][1,3]dioxol-5-yl)-2-(methylsulfonyl)ethyl)-4,6-dioxo-5,6-dihydro-4H-thieno[3,4-c]pyrrol-1-yl)cyclopropane Carboxamide] | < 20 | < 20 | – | –
CC(=O)Nc1scc2c1C(=O)N([C@H](CS(C)(=O)=O)c1ccc3c(c1)OCCO3)C2=O [Compound 14, N-(5-(1-(2,3-dihydrobenzo[b][1,4]dioxin-6-yl)-2-(methylsulfonyl)ethyl)-4,6-dioxo-5,6-dihydro-4H-thieno[3,4-c]pyrrol-1-yl) acetamide] | < 20 | < 20 | – | –
CCOc1cc([C@@H](CS(=O)(=O)N(C)C)N2C(=O)c3csc(NC(C)=O)c3C2=O)ccc1OC [Compound 15, (S)—N-(5-(2-(N,N-dimethylsulfamoyl)-1-(3-ethoxy-4-methoxyphenyl)ethyl)-4,6-dioxo-5,6-dihydro-4H-thieno[3,4-c]pyrrol-1-yl)acetamide] | < 20 | < 20 | – | –
CS(=O)(=O)C[C@H](c1ccc2c(c1)OCO2)N1C(=O)c2csc(NC(=O)C(F)(F)F)c2C1=O [Compound 16, N-(5-(1-(benzo[d][1,3]dioxol-5-yl)-2-(methylsulfonyl)ethyl)-4,6-dioxo-5,6-dihydro-4H-thieno[3,4-c]pyrrol-1-yl)-2,2,2-trifluoro Acetamide] | < 20 | < 20 | – | –
CS(=O)(=O)C[C@@H](c1ccc2c(c1)OCO2)N1C(=O)c2csc(NC(=O)C(F)(F)F)c2C1=O [Compound 17, N-(5-(1-(benzo[d][1,3]dioxol-5-yl)-2-(methylsulfonyl)ethyl)-4,6-dioxo-5,6-dihydro-4H-thieno[3,4-c]pyrrol-1-yl)-2,2,2-trifluoro Acetamide] | < 20 | < 20 | – | –
CS(=O)(=O)C[C@H](c1ccc2c(c1)OCO2)N1C(=O)c2scc(NC(=O)C(F)(F)F)c2C1=O [Compound 21, N-(5-(1-(benzo[d][1,3]dioxol-5-yl)-2-(methylsulfonyl)ethyl)-4,6-dioxo-5,6-dihydro-4H-thieno[2,3-c]pyrrol-3-yl)-2,2,2-trifluoroacetamide] | < 20 | < 20 | – | –
CS(=O)(=O)C[C@H](c1ccc2c(c1)OCO2)N1C(=O)c2scc(NC(=O)C(F)(F)F)c2C1=O [Compound 22, N-(5-(1-(benzo[d][1,3]dioxol-5-yl)-2-(methylsulfonyl)ethyl)-4,6-dioxo-5,6-dihydro-4H-thieno[2,3-c]pyrrol-3-yl)-2,2,2-trifluoroacetamide] | – | – | C (C = a single percent inhibition value ≤40% and >20%) | C (C = a single percent inhibition value ≤40% and >20%)
CC(=O)Nc1csc2c1C(=O)N([C@H](CS(C)(=O)=O)c1ccc3c(c1)OCO3)C2=O [Compound 23, N-(5-(1-(benzo[d][1,3]dioxol-5-yl)-2-(methylsulfonyl)ethyl)-4,6-dioxo-5,6-dihydro-4H-thieno[2,3-c]pyrrol-3-yl)acetamide] | 20 to 40 | 40 to 60 | – | –
CC(=O)Nc1csc2c1C(=O)N([C@H](CS(C)(=O)=O)c1ccc3c(c1)OCO3)C2=O [Compound 24, N-(5-(1-(benzo[d][1,3]dioxol-5-yl)-2-(methylsulfonyl)ethyl)-4,6-dioxo-5,6-dihydro-4H-thieno[2,3-c]pyrrol-3-yl)acetamide] | – | – | D (D = a single percent inhibition value <20%) | D (D = a single percent inhibition value <20%)
COCC(=O)Nc1csc2c1C(=O)N([C@H](CS(C)(=O)=O)c1ccc3c(c1)OCO3)C2=O [Compound 25, N-(5-(1-(benzo[d][1,3]dioxol-5-yl)-2-(methylsulfonyl)ethyl)-4,6-dioxo-5,6-dihydro-4H-thieno[2,3-c]pyrrol-3-yl)-2-methoxy acetamide] | < 20 | 20 to 40 | – | –
COCC(=O)Nc1csc2c1C(=O)N([C@@H](CS(C)(=O)=O)c1ccc3c(c1)OCO3)C2=O [Compound 26, N-(5-(1-(benzo[d][1,3]dioxol-5-yl)-2-(methylsulfonyl)ethyl)-4,6-dioxo-5,6-dihydro-4H-thieno[2,3-c]pyrrol-3-yl)-2-methoxy acetamide] | < 20 | < 20 | – | –
CC(=O)Nc1scc2c1C(=O)N([C@H](CS(=O)(=O)N(C)C)c1ccc3c(c1)OCO3)C2=O [Compound 27, N-(5-(1-(benzo[d][1,3]dioxol-5-yl)-2-(N,N-dimethylsulfamoyl)ethyl)-4,6-dioxo-5,6-dihydro-4H-thieno[3,4-c]pyrrol-1-yl)acetamide] | < 20 | < 20 | – | –
CCOc1cc([C@H](CS(=O)(=O)N(C)C)N2C(=O)c3csc(NC(C)=O)c3C2=O)ccc1OC [Compound 29, (R)—N-(5-(2-(N,N-dimethylsulfamoyl)-1-(3-ethoxy-4-methoxyphenyl)ethyl)-4,6-dioxo-5,6-dihydro-4H-thieno[3,4-c]pyrrol-1-yl)acetamide] | < 20 | < 20 | – | –
CCOc1cc([C@@H](CS(C)(=O)=O)N2Cc3c(NC(=O)C(F)(F)F)csc3C2=O)ccc1OC [Compound 30, (S)—N-(5-(1-(3-ethoxy-4-methoxyphenyl)-2-(methylsulfonyl)ethyl)-6-oxo-5,6-dihydro-4H-thieno[2,3-c]pyrrol-3-yl)-2,2,2-trifluoroacetamide] | < 20 | < 20 | – | –
CCOc1cc([C@@H](CS(C)(=O)=O)N2Cc3c(NC(=O)COC)csc3C2=O)ccc1OC [Compound 31, (S)—N-(5-(1-(3-ethoxy-4-methoxyphenyl)-2-(methylsulfonyl)ethyl)-6-oxo-5,6-dihydro-4H-thieno[2,3-c]pyrrol-3-yl)-2-methoxyacetamide] | < 20 | < 20 | – | –
CCOc1cc([C@@H](CS(C)(=O)=O)N2Cc3c(NC(=O)C4CC4)csc3C2=O)ccc1OC [Compound 32, (S)—N-(5-(1-(3-ethoxy-4-methoxyphenyl)-2-(methylsulfonyl)ethyl)-6-oxo-5,6-dihydro-4H-thieno[2,3-c]pyrrol-3-yl)cyclopropanecarboxamide] | < 20 | 20 to 40 | – | –

— patent US11236105B2, “Bicyclic compounds and methods of use” (BioTheryX, Inc., priority 2017, dated 2022)
